Results taken from publication PMC5741663, “Antimicrobial peptide capsids of de novo design” (Nature Communications, 2017).
Converted amounts (≈) assume the structure as drawn. Read-outs that look alike come from different tables or passages of the source. Marks after values point to notes of the source that are not given here. Starred links: 1 amine or outer side, 2 acyl side, 3 side chain; linkers in the order of their positions; H or OH if unused. Positions of bridges follow the written chain, without caps; N, C: chain ends. Non-standard residues stand in square brackets, D forms with d. Residues, ends and D or L forms follow the SMILES beside them. Chains are numbered I, II in the order given. *: point of attachment. X1 = CC(=O)N[C@@H](CCCCN[*:3])C(=O)NCCC(=O)N[C@@H](CCCCN[*:2])C(=O)NCCC(=O)N[C@@H](CCCCN[*:1])C(N)=O; X2 = CC[C@H](C)CCCCC(=O)*; Orn = NCCC[C@H](N)C(=O)O; Dab = NCC[C@H](N)C(=O)O; βAla = NCCC(=O)O

Columns and labels:
Assay type in all cases: cell-based
S. enterica (ATCC700720) = system: S. enterica (ATCC700720)
Description: (§1) MICs were determined by broth microdilution on different bacteria according to the Clinical and Laboratory Standards Institute. […] The absorbance was measured after peptide addition at 600 nm using a Victor 2 plate reader (Perkin-Elmer).

B. subtilis (ATCC6633) = system: B. subtilis (ATCC6633)
Description: (§2) MICs were determined by broth microdilution on different bacteria according to the Clinical and Laboratory Standards Institute. Typically, 100 μL of 0.5–1 × 10^6 CFU mL^–1 of each bacterium in Mueller Hinton media broth (Oxoid) were incubated in 96-well microtitre plates with 100 μL of serial two-fold dilutions of the peptides (from 100 to 0 μM) at 37 °C on a 3D orbital shaker. The absorbance was measured after peptide addition at 600 nm using a Victor 2 plate reader (Perkin-Elmer). MICs were defined as the lowest peptide concentration after 24 h at 37 °C.

E. coli (K12) = system: E. coli (K12)
Description: as §2

E. faecalis (OG1X) = system: E. faecalis (OG1X)
Description: as §2

[1] = system: P. aeruginosa (ATCC27853)
Description: as §2

S. aureus (ATCC6538) = system: S. aureus (ATCC6538)
Description: as §2

[2] = system: K. pneumoniae (NCTC 5055)
Description: as §1, with “(Perkin-Elmer). MICs were defined as the lowest peptide concentration after 24 h at 37 °C.” for “(Perkin-Elmer).”

Human erythrocytes = assay: Haemolysis assay; conditions: 10% (vol/vol) human erythrocytes in PBS pH 7.2, 1 h at room temperature, absorbance 550 nm; triplicates
Description: Haemolysis was determined by incubating a 10% (vol/vol) suspension of human erythrocytes with peptides. Erythrocytes were rinsed four times in 10 mM phosphate buffer saline (PBS), pH 7.2, by repeated centrifugation and re-suspension (3 min at 3000×g). Erythrocytes were incubated at room temperature for 1 h in either deionised water (fully haemolysed control), PBS, or with peptide in PBS. After centrifugation at 10,000×g for 5 min, the supernatant was separated from the pellet, and the absorbance was measured at 550 nm. Absorbance of the suspension treated with deionised water defined complete haemolysis.

[3] = S. enterica (ATCC700720), Mueller Hinton broth, 0.5–1 × 10^6 CFU mL–1, 24 h at 37 °C, absorbance 600 nm, total peptide concentration, triplicates

Row | Molecule | Minimum inhibitory concentrations (S. enterica (ATCC700720); [3]) [µM] | Minimum inhibitory concentrations (B. subtilis (ATCC6633); B. subtilis (ATCC6633), Mueller Hinton broth, 0.5–1 × 10^6 CFU mL–1, 24 h at 37 °C, absorbance 600 nm, total peptide concentration, triplicates) [µM] | Minimum inhibitory concentrations (E. coli (K12); E. coli (K12), Mueller Hinton broth, 0.5–1 × 10^6 CFU mL–1, 24 h at 37 °C, absorbance 600 nm, total peptide concentration, triplicates) [µM] | Minimum inhibitory concentrations (E. faecalis (OG1X); E. faecalis (OG1X), Mueller Hinton broth, 0.5–1 × 10^6 CFU mL–1, 24 h at 37 °C, absorbance 600 nm, total peptide concentration, triplicates) [µM] | Minimum inhibitory concentrations ([1]; P. aeruginosa (ATCC27853), Mueller Hinton broth, 0.5–1 × 10^6 CFU mL–1, 24 h at 37 °C, absorbance 600 nm, total peptide concentration, triplicates) [µM] | Minimum inhibitory concentrations (S. aureus (ATCC6538); S. aureus (ATCC6538), Mueller Hinton broth, 0.5–1 × 10^6 CFU mL–1, 24 h at 37 °C, absorbance 600 nm, total peptide concentration, triplicates) [µM] | Minimum inhibitory concentrations ([2]; K. pneumoniae (NCTC 5055), Mueller Hinton broth, 0.5–1 × 10^6 CFU mL–1, 24 h at 37 °C, absorbance 600 nm, total peptide concentration, triplicates) [µM] | Minimum inhibitory concentrations (B. subtilis (ATCC6633); ATCC6633, 24 h) [µM] | Minimum inhibitory concentrations (E. coli (K12); K12, 24 h) [µM] | Minimum inhibitory concentrations ([1]; ATCC27853, 24 h) [µM] | Minimum inhibitory concentrations (S. aureus (ATCC6538); ATCC6538, 24 h) [µM] | LC50, median (50%) cell death compared to untreated cells (Human erythrocytes) | Minimum inhibitory concentrations (E. faecalis (OG1X); OG1X, 24 h) [µM] | Minimum inhibitory concentrations (S. enterica (ATCC700720); ATCC700720, 24 h) [µM] | Minimum inhibitory concentrations ([2]; NCTC 5055, 24 h) [µM]
1 | CC[C@H](C)CCCCC(=O)N[C@@H](CCN)C(=O)N[C@H](C(=O)N[C@@H](CCN)C(=O)N[C@H]1CCNC(=O)[C@H]([C@@H](C)O)NC(=O)[C@H](CCN)NC(=O)[C@H](CCN)NC(=O)[C@H](CC(C)C)NC(=O)[C@@H](Cc2ccccc2)NC(=O)[C@H](CCN)NC1=O)[C@@H](C)O [Polymyxin B] (X2-[Dab]T[Dab][Dab][Dab][dF]L[Dab][Dab]T; lactam 4-C (inferred); N-terminus assumed) | <1 | 1.5 (≈ 1.81 µg/mL) | <1 | >100 | <1 | <50 | <1 | – | – | – | – | – | – | – | –
2 | CC(C)C[C@@H]1NC(=O)[C@H](CCCN)NC(=O)[C@H](C(C)C)NC(=O)[C@@H]2CCCN2C(=O)[C@@H](Cc2ccccc2)NC(=O)[C@H](CC(C)C)NC(=O)[C@H](CCCN)NC(=O)[C@H](C(C)C)NC(=O)[C@@H]2CCCN2C(=O)[C@@H](Cc2ccccc2)NC1=O [Gramicidin S] (cyclo(V[Orn]L[dF]PV[Orn]L[dF]P)) | <10 | – | – | – | – | – | – | >40 | <20 | >40 | <20 | >20 µM | – | – | –
3 | CCCCCCCCCC(=O)N[C@@H](Cc1c[nH]c2ccccc12)C(=O)N[C@H](CC(N)=O)C(=O)N[C@@H](CC(=O)O)C(=O)N[C@@H]1C(=O)NCC(=O)N[C@@H](CCCN)C(=O)N[C@@H](CC(=O)O)C(=O)N[C@H](C)C(=O)N[C@@H](CC(=O)O)C(=O)NCC(=O)N[C@H](CO)C(=O)N[C@@H]([C@H](C)CC(=O)O)C(=O)N[C@@H](CC(=O)c2ccccc2N)C(=O)O[C@@H]1C [Daptomycin] | >50 | – | – | – | – | – | – | <8 | >100 | >100 | <8 | >250^d µM | >100 | – | –
4 | I: H-KIAKLKQKIQKLKAKIAKLKQ[βAla][βAla] / II: H-KIAKLKQKIQKLKAKIAKLKQ[βAla][βAla] / III: H-KIAKLKQKIQKLKAKIAKLKQ[βAla][βAla] (linker I:C-II:C-III:C via X1) [C 3 (+) strand] | – | – | – | – | – | – | – | 1.5 | 1.5 | 3 | 50 | – | 50 | 3 | >12
